# Reference: US20250179061A1 (SIRONAX LTD., priority 2022, published 2025)
# Tested on: HT-29 cells
# Test: HT-29 necroptosis cell viability assay (TNF-α/SMAC mimetic/zVAD-FMK, CellTiter-Glo)
# Type: cell-based
# Conditions: Homo sapiens, HT-29, HT-29 necroptosis cell viability assay; class symbols for IC50; read-out: Activity
# Procedure, shortened: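 HT-29 cells (~5,000/well, overnight) in FBS-free McCoy's 5A with TNF-α 10 ng/ml, SMAC mimetic 6 μM and zVAD-FMK 10 μM plus 10-point 1:3 compound titration, 20 h at 37°C. ATP measured by CellTiter-Glo luminescence; IC50 as geometric mean of duplicates.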
row,Compound,IC50
1,"Cc1ncn(Cc2ccc(-n3ncn(Cc4c(F)cccc4F)c3=O)cc2)c1I [Example 540, 4-(2,6-difluorobenzyl)-2-(4-((5-iodo-4-methyl-1H-imidazol-1-yl)methyl)phenyl)-2,4-dihydro-3H-1,2,4-triazol-3-one]",< 100 nM
2,"Cc1cc(N2CC(C)(C#N)C2)nn1Cc1ccc(-n2ncn(Cc3c(F)cccc3F)c2=O)cc1 [Example 541, 1-(1-(4-(4-(2,6-difluorobenzyl)-5-oxo-4,5-dihydro-1H-1,2,4-triazol-1-yl)benzyl)-5-methyl-1H-pyrazol-3-yl)-3-methylazetidine-3-carbonitrile]",< 100 nM
3,"Cc1nc(C2=CCNC2)sc1Oc1ccc(-n2ncn(Cc3c(F)cccc3F)c2=O)cc1 [Example 542, 4-(2,6-difluorobenzyl)-2-(4-((2-(2,5-dihydro-1H-pyrrol-3-yl)-4-methylthiazol-5-yl)oxy)phenyl)-2,4-dihydro-3H-1,2,4-triazol-3-one]",< 100 nM
4,"Cc1nc(-c2ccnn2C)sc1Oc1ccc(-n2ncn(Cc3c(F)cccc3F)c2=O)cc1 [Example 544, 4-(2,6-difluorobenzyl)-2-(4-((4-methyl-2-(1-methyl-1H-pyrazol-5-yl)thiazol-5-yl)oxy)phenyl)-2,4-dihydro-3H-1,2,4-triazol-3-one]",< 100 nM
5,"Cn1nccc1Cc1ccc(-n2ncn(Cc3c(F)cccc3F)c2=O)cc1 [Example 545, 4-(2,6-difluorobenzyl)-2-(4-((1-methyl-1H-pyrazol-5-yl)methyl)phenyl)-2,4-dihydro-3H-1,2,4-triazol-3-one]",< 100 nM
6,"Cc1nc(C2=CCCC2)sc1Oc1ccc(-n2ncn(Cc3c(F)cccc3F)c2=O)cc1 [Example 546, 2-(4-((2-(cyclopent-1-en-1-yl)-4-methylthiazol-5-yl)oxy)phenyl)-4-(2,6-difluorobenzyl)-2,4-dihydro-3H-1,2,4-triazol-3-one]",< 100 nM
7,"Cc1nc(C=C2COC2)sc1Oc1ccc(-n2ncn(Cc3c(F)cccc3F)c2=O)cc1 [Example 547, 4-(2,6-difluorobenzyl)-2-(4-((4-methyl-2-(oxetan-3-ylidenemethyl)thiazol-5-yl)oxy)phenyl)-2,4-dihydro-3H-1,2,4-triazol-3-one]",< 100 nM
8,"O=c1n(Cc2c(F)cccc2F)cnn1-c1ccc(Oc2cc(C3=CCOCC3)ncc2F)c(F)c1 [Example 548, 4-(2,6-difluorobenzyl)-2-(4-((2-(3,6-dihydro-2H-pyran-4-yl)-5-fluoropyridin-4-yl)oxy)-3-fluorophenyl)-2,4-dihydro-3H-1,2,4-triazol-3-one]",< 100 nM
9,"Cc1nc(C2CCNC2)sc1Oc1ccc(-n2ncn(Cc3c(F)cccc3F)c2=O)cc1 (centres unmarked) [Example 549, 4-(2,6-difluorobenzyl)-2-(4-((4-methyl-2-(pyrrolidin-3-yl)thiazol-5-yl)oxy)phenyl)-2,4-dihydro-3H-1,2,4-triazol-3-one]",< 100 nM
10,"Cc1nc(C2CCOC2)sc1Oc1ccc(-n2ncn(Cc3c(F)cccc3F)c2=O)cc1 (centres unmarked) [Example 550, 4-(2,6-difluorobenzyl)-2-(4-((4-methyl-2-(tetrahydrofuran-3-yl)thiazol-5-yl)oxy)phenyl)-2,4-dihydro-3H-1,2,4-triazol-3-one]",< 100 nM
11,"Cc1nc(C2CCOCC2)sc1Oc1ccc(-n2ncn(Cc3c(F)cccc3F)c2=O)cc1 [Example 551, 4-(2,6-difluorobenzyl)-2-(4-((4-methyl-2-(tetrahydro-2H-pyran-4-yl)thiazol-5-yl)oxy)phenyl)-2,4-dihydro-3H-1,2,4-triazol-3-one]",< 100 nM
12,"Cc1nc(CC2COC2)sc1Oc1ccc(-n2ncn(Cc3c(F)cccc3F)c2=O)cc1 [Example 552, 4-(2,6-difluorobenzyl)-2-(4-((4-methyl-2-(oxetan-3-ylmethyl)thiazol-5-yl)oxy)phenyl)-2,4-dihydro-3H-1,2,4-triazol-3-one]",< 100 nM
13,"O=c1n(Cc2c(F)cccc2F)cnn1-c1ccc(Oc2cc(C3CCOCC3)ncc2F)c(F)c1 [Example 553, 4-(2,6-difluorobenzyl)-2-(3-fluoro-4-((5-fluoro-2-(tetrahydro-2H-pyran-4-yl)pyridin-4-yl)oxy)phenyl)-2,4-dihydro-3H-1,2,4-triazol-3-one]",100 to 1000 nM
14,"Cc1nc(C2CCN(C)C2)sc1Oc1ccc(-n2ncn(Cc3c(F)cccc3F)c2=O)cc1 (centres unmarked) [Example 554, 4-(2,6-difluorobenzyl)-2-(4-((4-methyl-2-(1-methylpyrrolidin-3-yl)thiazol-5-yl)oxy)phenyl)-2,4-dihydro-3H-1,2,4-triazol-3-one]",< 100 nM
15,"CC1(CN)CN(c2cc(Oc3ccc(-n4ncn(Cc5c(F)cccc5F)c4=O)cc3F)c(F)cn2)C1 [Example 555, 2-(4-((2-(3-(aminomethyl)-3-methylazetidin-1-yl)-5-fluoropyridin-4-yl)oxy)-3-fluorophenyl)-4-(2,6-difluorobenzyl)-2,4-dihydro-3H-1,2,4-triazol-3-one]",< 100 nM
16,"C[C@H](O)C1CN(c2cc(Oc3ccc(-n4ncn(Cc5c(F)cccc5F)c4=O)cc3F)c(F)cn2)C1 [Example 556, (S)-4-(2,6-difluorobenzyl)-2-(3-fluoro-4-((5-fluoro-2-(3-(1-hydroxyethyl)azetidin-1-yl)pyridin-4-yl)oxy)phenyl)-2,4-dihydro-3H-1,2,4-triazol-3-one]",< 100 nM

row,Compound,IC50
1,"CC1(CNC(=O)OC(C)(C)C)CN(c2cc(Oc3ccc(-n4ncn(Cc5c(F)cccc5F)c4=O)cc3F)c(F)cn2)C1 [Example 557, tert-butyl ((1-(4-(4-(4-(2,6-difluorobenzyl)-5-oxo-4,5-dihydro-1H-1,2,4-triazol-1-yl)-2-fluorophenoxy)-5-fluoropyridin-2-yl)-3-methylazetidin-3-yl)methyl)carbamate]",< 100 nM
2,"Cc1nc(C2CCCC2)sc1Oc1ccc(-n2ncn(Cc3c(F)cccc3F)c2=O)cc1 [Example 558, 2-(4-((2-cyclopentyl-4-methylthiazol-5-yl)oxy)phenyl)-4-(2,6-difluorobenzyl)-2,4-dihydro-3H-1,2,4-triazol-3-one]",< 100 nM
3,"Cc1nc(C(N)=O)sc1Oc1ccc(-n2ncn(Cc3c(F)cccc3F)c2=O)cc1F [Example 559, 5-(4-(4-(2,6-difluorobenzyl)-5-oxo-4,5-dihydro-1H-1,2,4-triazol-1-yl)-2-fluorophenoxy)-4-methylthiazole-2-carboxamide]",< 100 nM
4,"Cc1nc(C(N)=O)sc1Oc1ccc(-n2ncn(Cc3c(F)cccc3F)c2=O)cc1 [Example 560, 5-(4-(4-(2,6-difluorobenzyl)-5-oxo-4,5-dihydro-1H-1,2,4-triazol-1-yl)phenoxy)-4-methylthiazole-2-carboxamide]",< 100 nM
5,"Cc1nc(C#N)sc1Oc1ccc(-n2ncn(Cc3ccccc3F)c2=O)cc1F [Example 561, 5-(2-fluoro-4-(4-(2-fluorobenzyl)-5-oxo-4,5-dihydro-1H-1,2,4-triazol-1-yl)phenoxy)-4-methylthiazole-2-carbonitrile]",< 100 nM
6,"Cc1nc(C(N)=O)sc1Oc1ccc(-n2ncn(Cc3ccccc3F)c2=O)cc1F [Example 562, 5-(2-fluoro-4-(4-(2-fluorobenzyl)-5-oxo-4,5-dihydro-1H-1,2,4-triazol-1-yl)phenoxy)-4-methylthiazole-2-carboxamide]",< 100 nM
7,"Cc1ncsc1Oc1ccc(-n2ncn(Cc3cc(F)ccc3F)c2=O)cc1F [Example 563, 4-(2,5-difluorobenzyl)-2-(3-fluoro-4-((4-methylthiazol-5-yl)oxy)phenyl)-2,4-dihydro-3H-1,2,4-triazol-3-one]",< 100 nM
8,"Cc1nc(C(N)=O)sc1Oc1ccc(-n2ncn(Cc3cc(F)ccc3F)c2=O)cc1F [Example 564, 5-(4-(4-(2,5-difluorobenzyl)-5-oxo-4,5-dihydro-1H-1,2,4-triazol-1-yl)-2-fluorophenoxy)-4-methylthiazole-2-carboxamide]",< 100 nM
9,Cc1nc(C(N)=O)sc1Oc1ccc(-n2ncn(Cc3cc(Cl)ccn3)c2=O)cc1F [Example 565],100 to 1000 nM
10,"Cc1nc(C(N)=O)sc1Oc1ccc(-n2ncn(Cc3ccccc3C#N)c2=O)cc1F [Example 566, 5-(4-(4-(2-cyanobenzyl)-5-oxo-4,5-dihydro-1H-1,2,4-triazol-1-yl)-2-fluorophenoxy)-4-methylthiazole-2-carboxamide]",< 100 nM
11,"Cc1nc(C(N)=O)sc1Oc1ccc(-n2ncn(Cc3c(F)cccc3C#N)c2=O)cc1F [Example 567, 5-(4-(4-(2-cyano-6-fluorobenzyl)-5-oxo-4,5-dihydro-1H-1,2,4-triazol-1-yl)-2-fluorophenoxy)-4-methylthiazole-2-carboxamide]",< 100 nM
12,"Cc1cnc(N2CC(C)(C(N)=O)C2)cc1Oc1ccc(-n2ncn(Cc3c(F)cccc3F)c2=O)cc1Cl [Example 568, 1-(4-(2-chloro-4-(4-(2,6-difluorobenzyl)-5-oxo-4,5-dihydro-1H-1,2,4-triazol-1-yl)phenoxy)-5-methylpyridin-2-yl)-3-methylazetidine-3-carboxamide]",< 100 nM
13,"Cc1nc(C#N)sc1Oc1ccc(-n2ncn(Cc3c(F)cccc3F)c2=O)cc1F [Example 569, 5-(4-(4-(2,6-difluorobenzyl)-5-oxo-4,5-dihydro-1H-1,2,4-triazol-1-yl)-2-fluorophenoxy)-4-methylthiazole-2-carbonitrile]",< 100 nM
14,"Cc1nc(C#N)sc1Oc1ccc(-n2ncn(Cc3ccccc3C#N)c2=O)cc1F [Example 570, 5-(4-(4-(2-cyanobenzyl)-5-oxo-4,5-dihydro-1H-1,2,4-triazol-1-yl)-2-fluorophenoxy)-4-methylthiazole-2-carbonitrile]",100 to 1000 nM
15,"Cc1nc(C#N)sc1Oc1ccc(-n2ncn(Cc3c(F)cccc3C#N)c2=O)cc1F [Example 571, 5-(4-(4-(2-cyano-6-fluorobenzyl)-5-oxo-4,5-dihydro-1H-1,2,4-triazol-1-yl)-2-fluorophenoxy)-4-methylthiazole-2-carbonitrile]",< 100 nM
16,"Cc1nc(C#N)sc1Oc1ccc(-n2ncn(Cc3cc(F)ccc3F)c2=O)cc1F [Example 572, 5-(4-(4-(2,5-difluorobenzyl)-5-oxo-4,5-dihydro-1H-1,2,4-triazol-1-yl)-2-fluorophenoxy)-4-methylthiazole-2-carbonitrile]",< 100 nM
